Read-outs that look alike come from different tables or passages of the source.

Experiment [1] has as its target T1, MSOX (monomeric sarcosine oxidase) (Bacillus sp., UniProt P40859).
T1 sequence (P40859 1-390): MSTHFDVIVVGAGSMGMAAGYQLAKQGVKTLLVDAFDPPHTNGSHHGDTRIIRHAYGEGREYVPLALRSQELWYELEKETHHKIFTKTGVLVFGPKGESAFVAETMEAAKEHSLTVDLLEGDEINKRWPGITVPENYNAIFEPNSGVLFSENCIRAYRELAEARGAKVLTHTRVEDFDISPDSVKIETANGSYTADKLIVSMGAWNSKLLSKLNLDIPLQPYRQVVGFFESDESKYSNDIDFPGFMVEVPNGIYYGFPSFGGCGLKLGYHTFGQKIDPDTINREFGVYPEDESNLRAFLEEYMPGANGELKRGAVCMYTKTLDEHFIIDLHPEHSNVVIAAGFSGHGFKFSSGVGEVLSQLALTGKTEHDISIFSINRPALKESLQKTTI
The experiment is described as follows: Spectral titration of MSOX. The experiment is classed as binding. The note with it: for Kd: 50 mM potassium phosphate buffer.

Experiment [2] concerns the target T2, reduced MSOX (Bacillus sp., UniProt P40859). The conditions noted are these: absence of chloride; cited from earlier work.
Experiment [3] deals with T2, reduced MSOX.
Experiment [4] concerns the target T2, reduced MSOX. The experiment can be described thus: biochemical.
The next experiment has as its target Lys265Met MSOX mutant (Bacillus sp., UniProt P40859, K266M). The conditions noted are these: absorption spectrum of mutant unaffected by 2.0 M potassium chloride.
The next experiment concerns the target GOX (glucose oxidase) (Aspergillus niger, UniProt P13006). The experiment is described as follows: biochemical.

Chain of GOX (glucose oxidase) (P13006 23-605 limits assumed): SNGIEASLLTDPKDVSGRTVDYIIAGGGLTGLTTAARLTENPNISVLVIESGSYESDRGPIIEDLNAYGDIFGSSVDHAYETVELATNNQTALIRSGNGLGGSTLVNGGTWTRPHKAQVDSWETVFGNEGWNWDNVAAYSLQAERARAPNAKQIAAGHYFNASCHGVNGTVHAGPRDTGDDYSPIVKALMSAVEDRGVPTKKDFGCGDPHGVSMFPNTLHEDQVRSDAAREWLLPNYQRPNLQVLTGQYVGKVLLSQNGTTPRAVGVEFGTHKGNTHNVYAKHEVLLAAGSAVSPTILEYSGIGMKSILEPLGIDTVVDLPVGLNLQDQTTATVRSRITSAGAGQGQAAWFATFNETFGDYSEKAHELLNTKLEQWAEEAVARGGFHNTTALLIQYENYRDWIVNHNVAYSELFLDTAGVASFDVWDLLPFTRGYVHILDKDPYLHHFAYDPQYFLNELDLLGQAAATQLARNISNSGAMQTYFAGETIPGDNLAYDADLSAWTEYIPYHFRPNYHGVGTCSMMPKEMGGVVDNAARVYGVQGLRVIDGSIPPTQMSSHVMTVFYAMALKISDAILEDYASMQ

Broadly, the Kd is a measure of binding affinity in units of concentration. On to `CSCC(=O)O` [MTA, methylthioacetate], for which the Kd in experiment [1] (MSOX + MTA ⇄ MSOX•MTA, no additions, pH 8.0, 25 °C) was 2.43 ± 0.02 mM; in experiment [1] (MSOX + MTA ⇄ MSOX•MTA, plus 667 mM sodium sulfate, pH 8.0, 25 °C, plus 667 mM sodium sulfate), 1.84 ± 0.01 mM; in experiment [1] (MSOX•Cl− + MTA ⇄ MSOX•Cl−•MTA, pH 8.0, containing 2.0 M potassium chloride, 25 °C, absorbance at 528 nm), 4.9 ± 0.07 mM.

On to `O=O` [oxygen], for which the “Second-order rate constant for reaction of reduced MSOX with oxygen” value on reduced MSOX [2] was 2.83 ± 0.07 × 10^5 M^−1 s^−1; at reduced MSOX [3] (50 mM potassium phosphate, pH 8.0, 2.0 M potassium chloride, 25 °C, monitored at 454 nm), 2.48 ± 0.03 × 10^5 M^−1 s^−1. On reduced MSOX [4], this compound returned a Kd of no less than 10 mM.

Take `O=S(=O)([O-])[O-].[Na+].[Na+]` [sulfate, sodium sulfate]: in experiment [1] (667 mM sodium sulfate control for ionic strength), the “Binding of sulfate to MSOX” value is given as “does not bind”.

Consider `Cl` [chloride], for which the “Chloride binding to Lys265Met MSOX” value on Lys265Met MSOX mutant is listed as “eliminates chloride binding”. At reduced MSOX [3], the “Chloride binding at oxygen activation site of reduced MSOX in solution” value is listed as “not bound”. Moreover, the Kd at GOX (glucose oxidase) is 6.2 ± 0.1 mM.

(Values after PMC3448946 (Biochemistry, 2011).)
